Target: Recombinant human factor D (Homo sapiens (Human), UniProt P00746)
Assay: biochemical
Type: biochemical
Details: Factor D inhibition data using Method 1; substrate Z-Lys-thiobenzyl, fluorescence readout; read-out: IC50

Recombinant human factor D, sequence (P00746 26-253): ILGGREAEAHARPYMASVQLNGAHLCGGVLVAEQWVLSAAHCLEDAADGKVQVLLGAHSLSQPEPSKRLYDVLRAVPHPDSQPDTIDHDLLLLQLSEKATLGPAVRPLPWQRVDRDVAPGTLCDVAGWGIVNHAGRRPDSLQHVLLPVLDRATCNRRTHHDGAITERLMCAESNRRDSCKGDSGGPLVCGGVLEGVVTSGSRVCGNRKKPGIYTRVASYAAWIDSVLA

Row | Structure (SMILES) | IC50 [nM]
1 | CO[C@H]1CCC[C@@H](NC(=O)[C@@H]2C[C@H]3C[C@H]3N2C(=O)Cn2nc(C(C)=O)c3cc(OCc4ncccn4)ccc32)C1 [Example 94, (1R,3S,5R)-2-{2-[3-Acetyl-5-(pyrimidin-2-ylmethoxy)-indazol-1-yl]-acetyl}2-aza-bicyclo[3.1.0]hexane-3-carboxylic acid ((1R,3S)-3-methoxy-cyclohexyl)-amide] | 138
2 | CC(=O)c1nn(CC(=O)N2[C@@H]3C[C@@H]3C[C@H]2C(=O)N[C@@H]2CCC[C@H](C(F)(F)F)C2)c2ccc(OCc3ncccn3)cc12 [Example 95, (1R,3S,5R)-2-{2-[3-Acetyl-5-(pyrimidin-2-ylmethoxy)-indazol-1-yl]-acetyl}-2-aza-bicyclo[3.1.0]hexane-3-carboxylic acid ((1R,3S)-3-trifluoromethyl-cyclohexyl)-amide] | 25
3 | CC(=O)c1nn(CC(=O)N2[C@@H]3C[C@@H]3C[C@H]2C(=O)N[C@@H]2CCC[C@H](C)C2)c2ccc(OCc3ncccn3)cc12 [Example 96, (1R,3S,5R)-2-{2-[3-Acetyl-5-(pyrimidin-2-ylmethoxy)-indazol-1-yl]-acetyl}-2-aza-bicyclo[3.1.0]hexane-3-carboxylic acid ((1R,3S)-3-methyl-cyclohexyl)-amide] | 90
4 | CC(=O)c1nn(CC(=O)N2[C@@H]3C[C@@H]3C[C@H]2C(=O)NC2CC(C)(C)C2)c2ccc(OCc3ncccn3)cc12 [Example 103, (1R,3S,5R)-2-{2-[3-Acetyl-5-(pyrimidin-2-ylmethoxy)-indazol-1-yl]-acetyl}-2-aza-bicyclo[3.1.0]hexane-3-carboxylic acid (3,3-dimethyl-cyclobutyl)-amide] | 36

Same assay, conditions: read-out: IC50

Row | Structure (SMILES) | IC50 [nM]
5 | CC1(C)CCC[C@@H](NC(=O)[C@@H]2[C@@H]3C[C@@H]3CN2C(=O)Cn2nc(C(N)=O)c3ccccc32)C1 [Example 88, 1-{2-[(1R,2S,5S)-2-((R)-3,3-Dimethyl-cyclohexylcarbamoyl)-3-aza-bicyclo[3.1.0]hex-3-yl]-2-oxo-ethyl}-1H-indazole-3-carboxylic acid amide] | 34
6 | CC1(C)CCC[C@H](NC(=O)[C@@H]2[C@@H]3C[C@@H]3CN2C(=O)Cn2nc(C(N)=O)c3ccccc32)C1 [Example 89, 1-{2-[(1R,2S,5S)-2-((S)-3,3-Dimethyl-cyclohexylcarbamoyl)-3-aza-bicyclo[3.1.0]hex-3-yl]-2-oxo-ethyl}-1H-indazole-3-carboxylic acid amide] | 2130
7 | CC(=O)c1nn(CC(=O)N2[C@@H]3C[C@@H]3C[C@H]2C(=O)N[C@H]2CCCC(C)(C)C2)c2ccc(OCc3ncccn3)cc12 [Example 97, (1R,3S,5R)-2-{2-[3-Acetyl-5-(pyrimidin-2-ylmethoxy)-indazol-1-yl]-acetyl}-2-aza-bicyclo[3.1.0]hexane-3-carboxylic acid ((S)-3,3-dimethyl-cyclohexyl)-amide] | 341
8 | CC(=O)c1nn(CC(=O)N2[C@@H]3C[C@@H]3C[C@H]2C(=O)N[C@@H]2CCCC(C)(C)C2)c2ccc(OCc3ncccn3)cc12 [Example 98, (1R,3S,5R)-2-{2-[3-Acetyl-5-(pyrimidin-2-ylmethoxy)-indazol-1-yl]-acetyl}-2-aza-bicyclo[3.1.0]hexane-3-carboxylic acid ((R)-3,3-dimethyl-cyclohexyl)-amide] | 11
9 | CC(=O)c1nn(CC(=O)N2[C@@H]3C[C@@H]3C[C@H]2C(=O)NC2CC(F)(F)C2)c2ccc(OCc3ncccn3)cc12 [Example 104, (1R,3S,5R)-2-{2-[3-Acetyl-5-(pyrimidin-2-ylmethoxy)-indazol-1-yl]-acetyl}-2-aza-bicyclo[3.1.0]hexane-3-carboxylic acid (3,3-difluoro-cyclobutyl)-amide] | 273
10 | CO[C@@H]1C[C@@H](NC(=O)[C@@H]2C[C@H]3C[C@H]3N2C(=O)Cn2nc(C(N)=O)c3ccccc32)CC(C)(C)C1 [Example 105, 1-{2-[(1R,3S,5R)-3-((1S,5S)-5-Methoxy-3,3-dimethyl-cyclohexylcarbamoyl)-2-aza-bicyclo[3.1.0]hex-2-yl]-2-oxo-ethyl}-1H-indazole-3-carboxylic acid amide] | 225

Source: US9487483B2, “Complement pathway modulators and uses thereof” (priority 2012, dated 2016)
